We go through five molecules from PMC7063354, “Novel dipeptidyl peptidase‐IV and angiotensin‐I‐converting enzyme inhibitory peptides released from quinoa protein by in silico proteolysis” (Food Science & Nutrition, 2020).

One assay addresses T1, ACE (Homo sapiens, UniProt P12821).
T1 construct: purchased ACE kit‐WST
The experiment in a line: ACE inhibition assay (ACE kit-WST). The class given is biochemical. Particulars: chemically synthesized peptides; mean ± SD of three replicates. How it is done: The ACE inhibition assay was carried out with the ACE inhibitory assay kit (ACE kit‐WST). Absorbance at 450 nm was measured using a plate reader (SpectraMax plus, Molecular devices), and the IC50 value reported for each sample was the mean value from three independent replicate assays.

Assay [1] deals with T2, DPP-IV (Homo sapiens, UniProt P27487).
T2 construct: purchased Abnova KA1311
T2 sequence (P27487 whole entry): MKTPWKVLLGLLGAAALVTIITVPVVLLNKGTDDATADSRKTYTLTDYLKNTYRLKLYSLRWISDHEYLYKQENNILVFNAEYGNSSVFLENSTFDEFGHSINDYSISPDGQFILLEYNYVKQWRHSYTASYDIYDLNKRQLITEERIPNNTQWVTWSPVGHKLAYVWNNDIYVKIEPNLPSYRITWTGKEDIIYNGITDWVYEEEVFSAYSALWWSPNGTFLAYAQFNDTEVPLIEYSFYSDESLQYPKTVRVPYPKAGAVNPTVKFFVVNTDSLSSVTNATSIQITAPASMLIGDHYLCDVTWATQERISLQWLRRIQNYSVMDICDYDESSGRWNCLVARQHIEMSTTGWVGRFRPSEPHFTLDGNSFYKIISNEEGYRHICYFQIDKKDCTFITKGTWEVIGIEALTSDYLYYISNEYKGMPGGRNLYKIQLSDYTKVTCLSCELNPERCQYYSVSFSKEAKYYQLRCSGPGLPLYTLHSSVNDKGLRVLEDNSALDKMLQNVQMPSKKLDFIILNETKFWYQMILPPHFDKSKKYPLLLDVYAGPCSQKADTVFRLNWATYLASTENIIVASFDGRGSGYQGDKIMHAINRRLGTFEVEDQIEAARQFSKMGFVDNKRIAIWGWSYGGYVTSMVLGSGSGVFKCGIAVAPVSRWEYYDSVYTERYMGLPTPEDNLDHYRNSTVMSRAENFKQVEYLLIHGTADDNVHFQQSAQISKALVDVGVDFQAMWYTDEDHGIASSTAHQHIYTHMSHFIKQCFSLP
The experiment in a line: DPP-IV inhibition assay (DPP-IV inhibitor screening assay kit, Gly-Pro-Aminomethylcoumarin substrate). The class given is biochemical. Particulars: chemically synthesized peptides; mean ± SD of three replicates. How it is done: The DPP‐IV inhibition assay was determined using DPP‐IV inhibitor screening assay kit (KA1311, Abnova). Briefly, peptide samples (10 μl), dispersed in assay buffer (20 mM Tris‐HCl containing 100 mM NaCl and 1 mM EDTA, pH 8.0) at various concentrations, were mixed with assay buffer and DPP‐IV in a 96‐well plate. Then, substrate solution (Gly‐Pro‐Aminomethylcoumarin) was added to initiate the reactions. The mixture was incubated at 37°C for 30 min, and the fluorescence was measured using a plate reader (Synergy MX, Bio Tek) at an excitation wavelength of 350 nm and an emission wavelength of 450 nm. The concentration of the DPP‐IV inhibitor required to inhibit 50% of DPP‐IV activity under the above assay conditions was defined as the IC50, which was the mean value from three independent replicate assays.

The target in assay [2] is T2, DPP-IV. Also noted: method as in Vilcacundo et al., 2017. Particulars: peptide released from quinoa protein by pepsin-pancreatin digestion; ref Vilcacundo et al., 2017; read-out: IC50 DPP-IV inhibitory activity; cited from earlier work.

Where two headings read alike, the source gives them in different places. Peptide text beside a SMILES is read from it.

T1 sequence (P12821 30-1306, species assumed): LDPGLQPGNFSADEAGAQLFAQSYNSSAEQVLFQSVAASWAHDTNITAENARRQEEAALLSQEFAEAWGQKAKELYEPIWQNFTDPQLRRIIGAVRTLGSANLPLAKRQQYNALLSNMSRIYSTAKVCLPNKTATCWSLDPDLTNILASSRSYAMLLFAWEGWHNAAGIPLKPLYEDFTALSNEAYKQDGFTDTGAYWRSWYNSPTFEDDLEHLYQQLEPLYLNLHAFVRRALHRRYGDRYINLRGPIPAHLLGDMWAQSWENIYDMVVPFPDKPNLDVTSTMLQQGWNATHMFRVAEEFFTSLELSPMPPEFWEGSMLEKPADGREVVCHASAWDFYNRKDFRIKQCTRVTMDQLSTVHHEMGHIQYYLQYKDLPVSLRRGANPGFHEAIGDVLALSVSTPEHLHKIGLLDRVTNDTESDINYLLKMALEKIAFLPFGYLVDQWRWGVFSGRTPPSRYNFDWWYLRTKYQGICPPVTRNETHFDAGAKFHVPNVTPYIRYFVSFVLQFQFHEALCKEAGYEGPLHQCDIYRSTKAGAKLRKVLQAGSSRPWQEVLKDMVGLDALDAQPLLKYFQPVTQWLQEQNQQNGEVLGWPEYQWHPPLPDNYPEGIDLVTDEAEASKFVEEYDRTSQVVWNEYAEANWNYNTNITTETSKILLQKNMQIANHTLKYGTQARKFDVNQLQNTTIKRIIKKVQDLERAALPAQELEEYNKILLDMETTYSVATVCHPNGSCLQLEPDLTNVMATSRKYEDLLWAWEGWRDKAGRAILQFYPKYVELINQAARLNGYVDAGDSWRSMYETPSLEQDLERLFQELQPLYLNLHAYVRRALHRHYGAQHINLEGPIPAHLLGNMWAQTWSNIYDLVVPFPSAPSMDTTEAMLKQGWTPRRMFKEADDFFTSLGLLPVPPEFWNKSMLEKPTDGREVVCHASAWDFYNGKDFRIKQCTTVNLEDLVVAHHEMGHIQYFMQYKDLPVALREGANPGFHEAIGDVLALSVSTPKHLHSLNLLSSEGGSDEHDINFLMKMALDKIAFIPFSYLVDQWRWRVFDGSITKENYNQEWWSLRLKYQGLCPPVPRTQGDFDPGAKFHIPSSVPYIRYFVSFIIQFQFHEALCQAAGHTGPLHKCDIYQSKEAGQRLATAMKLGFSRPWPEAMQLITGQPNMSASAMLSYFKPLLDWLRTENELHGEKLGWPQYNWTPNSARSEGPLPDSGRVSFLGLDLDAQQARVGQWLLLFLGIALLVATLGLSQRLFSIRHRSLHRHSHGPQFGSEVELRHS

`N[C@@H](Cc1cnc[nH]1)C(=O)N1CCC[C@H]1C(=O)N[C@@H](Cc1ccccc1)C(=O)O` [HPF] (H-His-Pro-Phe-OH): the IC50 (as a rule, the concentration that inhibits the measured activity by half) at ACE is 100 µM; on DPP-IV [1], 34.3 µM.
On the same counts, the results for `CSCC[C@H](N)C(=O)N[C@@H](C)C(=O)N[C@@H](Cc1ccccc1)C(=O)O` [MAF] (H-Met-Ala-Phe-OH) are 152 µM and 338 µM.
`CSCC[C@H](N)C(=O)N[C@@H](CS)C(=O)NCC(=O)O` [MCG] (H-Met-Cys-Gly-OH): the IC50 against ACE was 20.9 µM; on DPP-IV [1] it was 149 µM.
Take `CSCC[C@H](NC(=O)[C@@H](N)CC(N)=O)C(=O)N[C@@H](Cc1ccccc1)C(=O)O` [NMF] (H-Asn-Met-Phe-OH): the IC50 is 152 µM against ACE and 127 µM at DPP-IV [1].
For the molecule IQAEGGLT, in the assay with DPP-IV [2], the half-maximal inhibitory concentration (IC50) was 268 µM.
